Data published in patent US6627635B2, “Method of preventing abuse of opioid dosage forms” (priority 1997, dated 2003).

Tests used:
[1] = in comparison to a 15 mg dose of hydrocodone
Excerpt: In certain preferred embodiments, the opioid agonist is hydrocodone.

[2] = pKa values of the drug substances
[3] = Simulated extractability of naltrexone HCl from hydrocodone bitartrate CR AcroContin tablets, 5 tablets in 5 mL solvent (HPLC recovery); assay type: physicochemical; settings: for % Precipitated: 5 tablets in 5 mL; for extractable from the tablets at the higher pH's: high pH (substantially greater than pH 10, preferably above pH 11)
[4] = Simulated extractability of naltrexone HCl from hydrocodone bitartrate CR AcroContin tablets, 4 tablets in 25 mL solvent (HPLC recovery); settings: for solubility in acetone: poor recoveries; for dissolution in the solvents: all of the solvents except acetone
mu over delta sites = settings: cited from earlier work
[5] = hydrochloride salt; cited from earlier work
[6] = after oral doses; cited from earlier work
[7] = cited from earlier work
[8] = Extractability of naltrexone HCl (1.5 mg) from oxycodone HCl (15 mg), 5 tablets/5 mL solvent; assay type: physicochemical
[9] = system: effects of morphine-like opioid agonist; settings: cited from earlier work

## COc1ccc2c3c1O[C@H]1[C@@H](O)C=C[C@H]4[C@@H](C2)N(C)CC[C@@]341 [Codeine]
[1]
  Equianalgesic Doses of Opioids, Calculated Dose: 90.0 mg

## COc1ccc2c3c1OC1C(=O)CC[C@H]4[C@@H](C2)N(C)CC[C@]314 (some centres unmarked) [Hydrocodone, 4,5-epoxy-3-methoxy-17-methylmorphinan-6-one]
[2]; at amine functional group
  pKa: 9.2
[1]
  Equianalgesic Doses of Opioids, Calculated Dose: 15.0 mg
[3]; diluent pH 7.1
  % Precipitated: 8%
[3]; diluent pH 8.0
  % Precipitated: 12%
[3]; diluent pH 9.0
  % Precipitated: 27%
[3]; diluent pH 10.0
  % Precipitated: 28%
[3]; diluent pH 11.0
  % Precipitated: 21%
[3]; diluent pH 12.0
  % Precipitated: 83%
[3]; diluent pH 12.7
  % Precipitated: 81%
[3]
  extractable from the tablets at the higher pH's: about 80%
[4]
  solubility in acetone: less soluble
  dissolution in the solvents: dissolved completely

## CN1CC[C@]23CCCC[C@H]2[C@H]1Cc1ccc(O)cc13 [Levorphanol]
[1]
  Equianalgesic Doses of Opioids, Calculated Dose: 1.8 mg

## CCC(=O)C(CC(C)N(C)C)(c1ccccc1)c1ccccc1 (centres unmarked) [Methadone]
[1]
  Equianalgesic Doses of Opioids, Calculated Dose: 9.0 mg

## O=C1CC[C@@]2(O)[C@H]3Cc4ccc(O)c5c4[C@@]2(CCN3CC2CC2)[C@H]1O5 [Naltrexone]
Mu over delta sites
  blocking action, receptor preference: strong preferential blocking action
[2]; at amine functional group
  pKa: 8.4
[2]; at phenol functional group
  pKa: 10.3
[3]
  extractable from the tablets at the higher pH's: about 10%
[3]; listed as Naltrexone Hydrochloride
  extractable from the tablets at the higher pH's: ~10%
[5]
  soluble in water: about 100 mg/cc
[6]
  duration of action: ~24 h
[7]; in vivo
  protein binding: approximately 21%
[7]; oral
  oral bioavailability: 5-40%
[4]
  solubility in acetone: less soluble
  dissolution in the solvents: dissolved completely

## COc1ccc2c3c1O[C@H]1C(=O)CC[C@@]4(O)[C@@H](C2)N(C)CC[C@]314 [Oxycodone]
[1]
  Equianalgesic Doses of Opioids, Calculated Dose: 13.5 mg
[8]; diluent Ethanol
  % Precipitated: 13%
[8]; diluent IPA
  % Precipitated: 86%
[8]; diluent Methanol
  % Precipitated: 13%
[8]; diluent pH 6.9
  % Precipitated: 6%
[8]; diluent pH 8.1
  % Precipitated: 87%
[8]; diluent pH 9.4
  % Precipitated: 98%
[8]; diluent pH 10.2
  % Precipitated: 98%
[8]; diluent pH 11.0
  % Precipitated: 98%
[8]; diluent pH 11.9
  % Precipitated: 98%
[8]; diluent pH 12.8
  % Precipitated: 98%

## C[C@H]1[C@H]2Cc3ccc(O)cc3[C@]1(C)CCN2CC1CC1 [cyclazocine]
[6]
  duration of action: ~24 h

## C=CCN1CC[C@]23c4c5ccc(O)c4O[C@H]2C(=O)CC[C@@]3(O)[C@H]1C5 [naloxone]
[9]; 0.4-0.8 mg intramuscularly or intravenously in man
  antagonism of morphine-like opioid agonist effects: prevent or promptly reverse the effects of morphine-like opioid agonist
[9]; one mg intravenously
  block of the effect of 25 mg of heroin: completely block

## Meperidine
[1]
  Equianalgesic Doses of Opioids, Calculated Dose: 135.0 mg
